# Measured values: publication PMC11106739, “Discovery and Derivatization of Tridecaptin Antibiotics with Altered Host Specificity and Enhanced Bioactivity” (ACS Chemical Biology, 2024)
# Where two headings read alike, the source gives them in different places. Where a SMILES comes first, the peptide text is derived from it. Bridges are numbered along the chain shown (N, C = ends). [ ]: non-standard residue; d: D form. The star is where a group is joined. d(aIle) = CC[C@H](C)[C@@H](N)C(=O)O; X1 = CC[C@H](C)CCCCC(=O)*; dDab = NCC[C@@H](N)C(=O)O; Octanoyl = CCCCCCCC(=O)*; Dab = NCC[C@H](N)C(=O)O
# Tests used:
# [1] = system: K. pneumoniae ATCC 13883; assay type: cell-based, Klebsiella pneumoniae
# Procedure: (§1) All minimum inhibitory concentrations (MICs) were determined according to the Clinical and Standards Laboratory Institute (CLSI) guidelines. In brief, agar plates were inoculated from glycerol stocks and incubated overnight at 35 °C. Peptide DMSO stocks were dispensed into 96-well round-bottom plates using a TECAN D300e dispenser. Colistin sulfate (Sigma-Aldrich) was dissolved in water and serially diluted in a cation-adjusted Mueller Hinton broth (10 μL per well). Final concentrations of the test compounds were 0.06 to 64 μg/mL. Inocula were prepared by direct colony suspension in NaCl at 0.5 MacFarland, which was further diluted 200-fold in cation-adjusted Mueller Hinton broth for a target inoculum of 2 × 10^5 colony forming units (CFUs)/mL. 100 μL portion of the prepared inoculum was added to each well of the prepared plates containing the test compounds. Plates were sealed with parafilm and incubated for 20 h at 35 °C. Images of all plates were recorded, and MIC was assessed visually.
# [2] = system: K. pneumoniae 1228586; assay type: cell-based, Klebsiella pneumoniae
# Procedure: as §1
# [3] = system: K. pneumoniae 1227947; assay type: cell-based, Klebsiella pneumoniae
# Procedure: as §1
# [4] = system: S. aureus ATCC 29213; assay type: cell-based, Staphylococcus aureus
# Procedure: as §1
# [5] = system: S. aureus UAMS-1625; assay type: cell-based, Staphylococcus aureus; settings: S. aureus UAMS-1625 (BV18); CLSI broth dilution, cation-adjusted Mueller Hinton broth, 20 h, 35 °C, read visually
# Procedure: as §1
# [6] = system: S. aureus 1126387; assay type: cell-based, Staphylococcus aureus
# Procedure: as §1
# [7] = system: ATCC 25922; assay type: cell-based, Enterococcus faecalis
# Procedure: as §1
# [8] = system: E. faecalis ATCC 29212; assay type: cell-based, Enterococcus faecalis
# Procedure: as §1
# [9] = system: E. coli 1214245; assay type: cell-based, Escherichia coli
# Procedure: as §1
# [10] = system: E. coli 1220120; assay type: cell-based, Escherichia coli
# Procedure: as §1
# [11] = system: E. coli ATCC 25922; assay type: cell-based, Escherichia coli
# Procedure: as §1
# [12] = system: A. baumannii ATCC 17978; assay type: cell-based, Acinetobacter baumannii
# Procedure: as §1
# [13] = system: A. baumannii HUMC1; assay type: cell-based, Acinetobacter baumannii
# Procedure: as §1
# [14] = system: A. baumannii IHMA 777621; assay type: cell-based, Acinetobacter baumannii
# Procedure: as §1
# [15] = system: HepG2 cells; assay: Cytotoxicity determination (CellTiter-Glo); assay type: cell-based; settings: HepG2, medium without serum, 24 h, normalization to the untreated control, 1 to 128 μg/mL tested
# Procedure: HepG2 cells were grown in EMEM (Sigma) supplemented with 2 mM glutamine and 10% fetal bovine serum (Fisher) at 37 °C, 5% CO2. 20′000 cells per well were seeded into clear tissue culture-treated 96-well plates and incubated for 24 h. Peptides, dissolved in DMSO, were dispensed into 96 deep well plates (TECAN D300e dispenser) and diluted to a final concentration of 1 to 128 μg/mL using fresh medium without serum. The next day, the old media were removed from the cells, and 200 μL of the prepared compound dilutions was added per well. Plates were incubated for another 24 h before assessing the cell viability using the CellTiter-Glo kit (Promega) according to the manufacturer’s protocol. IC50s were calculated after normalization to the untreated control.
# [16] = system: P. aeruginosa 1218019; assay type: cell-based, Pseudomonas aeruginosa
# Procedure: as §1
# [17] = system: P. aeruginosa 1226072; assay type: cell-based, Pseudomonas aeruginosa
# Procedure: as §1
# [18] = system: P. aeruginosa PAO1; assay type: cell-based, Pseudomonas aeruginosa
# Procedure: as §1
# [19] = system: E. faecium ATCC 51559; assay type: cell-based, Enterococcus faecium
# Procedure: as §1
# [20] = system: E. faecium IHMA 890472; assay type: cell-based, Enterococcus faecium
# Procedure: as §1
# [21] = system: Rabbit red blood cells; assay: Hemolysis assay; assay type: cell-based; settings: rabbit red blood cells in PBS, 37 °C, 1 h, absorbance at 405 nm, normalization to the Triton X-100 control; 0.25 to 128 μg/mL tested
# Procedure: Peptides, dissolved in DMSO, were dispensed into 96-well round-bottom microplates using a TECAN D300e dispenser and subsequently diluted with 100 μL of PBS. PBS or 2% Triton X-100 was used as negative and positive controls, respectively. Rabbit red blood cells (BioConcept) were diluted in PBS to a final concentration of 2%, and 100 μL was added to each well of the prepared 96-well plates. The final concentration of the test compounds was 0.25 to 128 μg/mL. Plates were incubated at 37 °C for 1 h and afterward subjected to centrifugation at 1000g for 5 min. Then, 30 μL of supernatant was transferred to a new round-bottom plate, and absorbance was measured at 405 nm (TECAN Infinite F200). EC50s were calculated after blank subtraction and normalization to the Triton control.
smiles,measurement,setting,value
"CC[C@H](C)CCCCC(=O)N[C@@H](CCN)C(=O)N[C@H](C(=O)N[C@@H](CCN)C(=O)N[C@H]1CCNC(=O)[C@H]([C@@H](C)O)NC(=O)[C@H](CCN)NC(=O)[C@H](CCN)NC(=O)[C@H](CC(C)C)NC(=O)[C@@H](CC(C)C)NC(=O)[C@H](CCN)NC1=O)[C@@H](C)O [colistin, reference compound] (X1-[Dab]T[Dab][Dab][Dab][dL]L[Dab][Dab]T; lactam 4-C (inferred); N-terminus assumed)",MIC,"[1]; K. pneumoniae ATCC 13883 (BV306), CLSI broth dilution, cation-adjusted Mueller Hinton broth, 20 h, 35 °C, read visually",1 µg/mL
same,MIC,"[2]; K. pneumoniae 1228586 (BV1447), CLSI broth dilution, cation-adjusted Mueller Hinton broth, 20 h, 35 °C, read visually",64 µg/mL
same,MIC,"[3]; K. pneumoniae 1227947 (BV1445), CLSI broth dilution, cation-adjusted Mueller Hinton broth, 20 h, 35 °C, read visually",0.5 µg/mL
same,MIC,"[4]; S. aureus ATCC 29213 (BV249), CLSI broth dilution, cation-adjusted Mueller Hinton broth, 20 h, 35 °C, read visually",>64 µg/mL
same,MIC,[5],>64 µg/mL
same,MIC,"[6]; S. aureus 1126387 (BV1402), CLSI broth dilution, cation-adjusted Mueller Hinton broth, 20 h, 35 °C, read visually",>64 µg/mL
same,MIC,"[7]; E. faecalis ATCC 25922 (BV99), CLSI broth dilution, cation-adjusted Mueller Hinton broth, 20 h, 35 °C, read visually",>64 µg/mL
same,MIC,"[8]; E. faecalis ATCC 29212 (BV29), CLSI broth dilution, cation-adjusted Mueller Hinton broth, 20 h, 35 °C, read visually",>64 µg/mL
same,MIC,"[9]; E. coli 1214245 (BV1469), CLSI broth dilution, cation-adjusted Mueller Hinton broth, 20 h, 35 °C, read visually",32 µg/mL
same,MIC,"[10]; E. coli 1220120 (BV1475), CLSI broth dilution, cation-adjusted Mueller Hinton broth, 20 h, 35 °C, read visually",0.5 µg/mL
same,MIC,"[11]; E. coli ATCC 25922 (BV23), CLSI broth dilution, cation-adjusted Mueller Hinton broth, 20 h, 35 °C, read visually",1 µg/mL
same,MIC,"[12]; A. baumannii ATCC 17978 (BV160), CLSI broth dilution, cation-adjusted Mueller Hinton broth, 20 h, 35 °C, read visually",1 µg/mL
same,MIC,"[13]; A. baumannii HUMC1 (BV374), CLSI broth dilution, cation-adjusted Mueller Hinton broth, 20 h, 35 °C, read visually",1 µg/mL
same,MIC,"[14]; A. baumannii IHMA 777621 (BV94), CLSI broth dilution, cation-adjusted Mueller Hinton broth, 20 h, 35 °C, read visually",64 µg/mL
same,IC50 on HepG2 w/o FCS,[15],>128 µg/mL
same,MIC,"[16]; P. aeruginosa 1218019 (BV1544), colistin-resistant, CLSI broth dilution, cation-adjusted Mueller Hinton broth, 20 h, 35 °C, read visually",>64 µg/mL
same,MIC,"[17]; P. aeruginosa 1226072 (BV1551), CLSI broth dilution, cation-adjusted Mueller Hinton broth, 20 h, 35 °C, read visually",0.5 µg/mL
same,MIC,"[18]; P. aeruginosa PAO1 (BV34), CLSI broth dilution, cation-adjusted Mueller Hinton broth, 20 h, 35 °C, read visually",2 µg/mL
same,MIC,"[19]; E. faecium ATCC 51559 (BV159), CLSI broth dilution, cation-adjusted Mueller Hinton broth, 20 h, 35 °C, read visually",>64 µg/mL
same,MIC,"[20]; E. faecium IHMA 890472 (BV144), CLSI broth dilution, cation-adjusted Mueller Hinton broth, 20 h, 35 °C, read visually",>64 µg/mL
CCCCCCCC(=O)N[C@@H](C(=O)N[C@H](CCN)C(=O)NCC(=O)N[C@H](CO)C(=O)N[C@H](Cc1c[nH]c2ccccc12)C(=O)N[C@@H](CO)C(=O)N[C@@H](CCN)C(=O)N[C@H](CCN)C(=O)N[C@@H](Cc1c[nH]cn1)C(=O)N[C@@H](CCC(=O)O)C(=O)N[C@H](C(=O)N[C@@H](C(=O)N[C@@H](C)C(=O)O)[C@@H](C)CC)C(C)C)C(C)C [Oct-His9] (Octanoyl-[dV][dDab]G[dS][dW]S[Dab][dDab]HEV[d(aIle)]A-OH),Hemolysis EC50,[21],>128 µg/mL
same,MIC,"[1]; ATCC 13883, 20 h",16 µg/mL
same,MIC,"[2]; 1228586, 20 h",8 µg/mL
same,MIC,"[3]; 1227947, 20 h",32 µg/mL
same,MIC,"[4]; ATCC 29213, 20 h",>64 µg/mL
same,MIC,[5],>64 µg/mL
same,MIC,"[6]; 1126387, 20 h",>64 µg/mL
same,MIC,"[7]; ATCC 25922, 20 h",>64 µg/mL
same,MIC,"[8]; ATCC 29212, 20 h",>64 µg/mL
same,MIC,"[9]; 1214245, 20 h",16 µg/mL
same,MIC,"[10]; 1220120, 20 h",8 µg/mL
same,MIC,"[11]; ATCC 25922, 20 h",16 µg/mL
same,MIC,"[12]; ATCC 17978, 20 h",>64 µg/mL
same,MIC,"[13]; HUMC1, 20 h",>64 µg/mL
same,MIC,"[14]; IHMA 777621, 20 h",>64 µg/mL
same,IC50 on HepG2 w/o FCS,[15],>128 µg/mL
same,MIC,"[16]; 1218019, 20 h",2 µg/mL
same,MIC,"[17]; 1226072, 20 h",4 µg/mL
same,MIC,"[18]; PAO1, 20 h",32 µg/mL
same,MIC,"[19]; ATCC 51559, 20 h",>64 µg/mL
same,MIC,"[20]; IHMA 890472, 20 h",>64 µg/mL
